We go through 42 compounds from patent US10239835B2, “N-alkylaryl-5-oxyaryl-octahydro-cyclopenta[c]pyrrole negative allosteric modulators of NR2B” (Luc Therapeutics, Inc., priority 2014, dated 2019).

Read-outs that look alike come from different tables or passages of the source. Some results are limits rather than exact numbers.

Test [1] deals with HEK293 cells expressing NR1/NR2B (Homo sapiens (Human), UniProt Q13224). Kind of test: NR2B NAM Assay (FDSS Ca2+ influx cell assay). Format: cell-based. The protocol: (§1) Cell Culture and plating: HEK293 cells expressing NR1/NR2B (Chantest, Cleveland, Ohio) were grown to 70-80% confluency as an adherent monolayer in standard tissue culture flasks at 37° C., 5% CO2 per supplier's instructions. NR2B expression was induced by incubation with 0.3-0.4 μg/ml tetracycline in the presence of 4 mM ARL-15896 for 18-24 hours under the same growth conditions, then transferred to 30° C. for another 3-5 hours.
(§2) After induction, cell culture medium was removed and cells were rinsed once with Ca^2+ and Mg^2+-free Dulbecco's phosphate buffered saline. Cells were then removed from the flask using TrypLE™ Express (Life Technologies) according to the manufacturer's instructions and collected to 50 ml centrifuge tubes. Following two washes in Ca^2+/Mg^2+-free HBSS with 20 mM HEPES (HHnoCa), cells were counted and viability assessed using trypan blue. To load cells with Ca^2+-sensitive dye, they were resuspended in fluo-8 plus Component B (AAT Bioquest Products) diluted in HHnoCa and incubated 15 minutes at 37° C., followed by 30 minutes at room temp (in dark). Cells were then washed and resuspended in HHnoCa to remove extracellular dye and plated in 384-well plates (Falcon, uncoated) at 20,000-30,000 cells/well in a final volume of 25 μl/well.
(§3) FDSS Assay: To each well of the plate, 10 μL test compound, control (MK801) or HHnoCa buffer was added at different concentrations to yield final concentrations of 0.001, 0.003, 0.010, 0.030, 0.100, 0.300, 1.000, 3.000, 10.000, or 30.000 uM final concentration of DMSO of 0.1%. Following 10 minutes pre-incubation in the dark, plates are loaded onto the Hamamatsu FDSS 6000. After collecting baseline fluorescence images, 3 μM glutamate, 3 μM glycine, and 1 mM Ca^2+ in HHnoCa buffer is added to each well, and Ca^2+ is recorded for 3 minutes. Data were processed by computing ratio of fluorescence at the end of data collection to baseline fluorescence to assess degree of Ca^2+ influx inhibition relative to that observed in MK801.
(§4) Table 8 below provides activity of each compound according to the legend that “++++” indicates inhibition at a concentration<100 nM; “+++” indicates inhibition at a concentration between 100 nM and 1 μM of the disclosed compound; “++” indicates inhibition at a concentration of from 1 μM to 10 μM; and “+” indicates inhibition at a concentration>10 μM.

In test [2] the target is HEK293 cells expressing NR1/NR2B (Homo sapiens (Human), UniProt Q05586+Q13224). Briefly: NR2B NAM Assay (FDSS Ca2+ influx cell assay). As to conditions: NR2B NAM assay, class of inhibitory concentration; read-out: Activity Category. Format: cell-based. As for the experimental part:
as §1, §2, §3, §4

Where [3] appears, read: Ca2+ influx inhibition relative to MK801, 3 μM glutamate, 3 μM glycine, 1 mM Ca2+, read-out: NR2B NAM IC50.

Chain of HEK293 cells expressing NR1/NR2B (Homo sapiens (Human), UniProt Q13224) (Q13224 27-1484, other chains not shown): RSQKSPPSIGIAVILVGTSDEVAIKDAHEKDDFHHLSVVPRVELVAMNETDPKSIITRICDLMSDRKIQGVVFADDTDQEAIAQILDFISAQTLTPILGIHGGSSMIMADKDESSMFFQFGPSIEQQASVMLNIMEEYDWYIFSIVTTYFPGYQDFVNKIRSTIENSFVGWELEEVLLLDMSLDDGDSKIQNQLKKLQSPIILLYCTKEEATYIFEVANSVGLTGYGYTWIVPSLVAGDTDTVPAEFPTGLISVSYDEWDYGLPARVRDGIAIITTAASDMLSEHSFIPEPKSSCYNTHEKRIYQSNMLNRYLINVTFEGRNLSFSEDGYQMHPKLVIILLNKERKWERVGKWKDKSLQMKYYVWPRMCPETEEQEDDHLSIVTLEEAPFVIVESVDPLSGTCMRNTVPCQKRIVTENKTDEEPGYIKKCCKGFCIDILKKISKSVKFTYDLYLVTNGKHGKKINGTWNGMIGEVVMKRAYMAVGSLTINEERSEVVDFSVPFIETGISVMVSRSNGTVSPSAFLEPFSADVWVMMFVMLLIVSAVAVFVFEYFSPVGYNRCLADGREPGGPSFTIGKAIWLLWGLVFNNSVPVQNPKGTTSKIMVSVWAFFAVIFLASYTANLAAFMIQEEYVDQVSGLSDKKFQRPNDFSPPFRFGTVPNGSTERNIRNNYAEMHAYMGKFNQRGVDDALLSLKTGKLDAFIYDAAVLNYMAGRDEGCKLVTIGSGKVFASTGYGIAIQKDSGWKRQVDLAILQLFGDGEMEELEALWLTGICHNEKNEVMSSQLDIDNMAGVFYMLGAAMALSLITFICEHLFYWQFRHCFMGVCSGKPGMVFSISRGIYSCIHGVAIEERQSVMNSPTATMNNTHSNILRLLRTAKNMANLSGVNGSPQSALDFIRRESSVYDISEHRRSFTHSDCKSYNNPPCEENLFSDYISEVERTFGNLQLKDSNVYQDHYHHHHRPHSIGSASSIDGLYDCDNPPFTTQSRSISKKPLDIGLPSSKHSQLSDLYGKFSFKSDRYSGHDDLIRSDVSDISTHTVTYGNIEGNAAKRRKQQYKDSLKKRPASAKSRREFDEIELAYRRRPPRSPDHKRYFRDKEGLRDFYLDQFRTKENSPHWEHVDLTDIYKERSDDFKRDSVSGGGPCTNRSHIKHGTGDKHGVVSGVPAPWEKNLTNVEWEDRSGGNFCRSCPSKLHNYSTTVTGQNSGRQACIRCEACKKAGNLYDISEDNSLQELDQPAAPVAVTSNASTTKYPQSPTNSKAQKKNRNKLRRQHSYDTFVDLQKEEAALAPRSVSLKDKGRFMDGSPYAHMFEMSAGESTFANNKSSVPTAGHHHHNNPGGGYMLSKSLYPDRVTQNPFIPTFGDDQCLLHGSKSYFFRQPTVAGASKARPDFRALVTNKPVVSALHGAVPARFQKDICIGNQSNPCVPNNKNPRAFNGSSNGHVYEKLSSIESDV
Chain of HEK293 cells expressing NR1/NR2B (Homo sapiens (Human), UniProt Q05586+Q13224) (Q13224 27-1484, other chains not shown): as above

Regarding `O=C(CN1C[C@H]2C[C@H](Oc3ccc(F)c(F)c3)C[C@H]2C1)c1ccc(O)cc1`, the IC50 in test [1] (setting [3]) was 0.0616 µM; in test [2] it was less than 0.1 µM.

As to `Oc1ccc(C(O)CN2C[C@H]3C[C@H](Oc4ccc(F)c(F)c4)C[C@H]3C2)cc1` (stereo partly drawn), the IC50 in test [1] (setting [3]) was 0.014 µM; in test [2], less than 0.1 µM.

Regarding `O=C(CN1C[C@H]2C[C@H](Oc3ccc(F)c(F)c3)C[C@H]2C1)c1ccc(O)cn1`, the IC50 was 1.26 µM in test [1] (setting [3]) and 1 to 10 µM in test [2].

Consider `O=C(CN1C[C@H]2C[C@H](Oc3ccc(F)cc3)C[C@H]2C1)c1ccc(O)cn1`, for which the IC50 in test [1] (setting [3]) was 0.699 µM; in test [2], 0.1 to 1 µM.

Consider `Oc1ccc(C(O)CN2C[C@H]3C[C@@H](Oc4ccc(F)cc4)C[C@H]3C2)cc1F` (stereo partly drawn), for which the IC50 in test [1] (setting [3]) was 0.0305 µM; in test [2], less than 0.1 µM.

In the case of `Cc1ccc(O[C@H]2C[C@@H]3CN(CC(=O)c4ccc(O)c(F)c4)C[C@@H]3C2)cn1`, the IC50 in test [1] (setting [3]) is 2.37 µM; in test [2], 1 to 10 µM.

As for `Cc1ccc(O[C@H]2C[C@@H]3CN(CC(O)c4ccc(O)c(F)c4)C[C@@H]3C2)cn1` (stereo partly drawn), the results for the IC50 in test [1] (setting [3]) and in test [2] were 0.09 µM and less than 0.1 µM, respectively.

As to `COc1ccc(O[C@@H]2C[C@@H]3CN(CC(O)c4ccc(O)cc4)C[C@@H]3C2)cc1` (stereo partly drawn), the figures for the IC50 in test [1] (setting [3]) and in test [2] were 0.112 µM and 0.1 to 1 µM, respectively.

In the case of `COc1ccc(O[C@@H]2C[C@@H]3CN(CC(=O)c4ccc(O)cn4)C[C@@H]3C2)cc1`, the IC50 in test [1] (setting [3]) was 7.1 µM; in test [2], 1 to 10 µM.

With `Oc1ccc(C(O)CN2C[C@H]3C[C@@H](Oc4ccc(F)cc4)C[C@H]3C2)cc1` (stereo partly drawn), the IC50 in test [1] (setting [3]) was 0.0178 µM; in test [2] it was less than 0.1 µM.

`O=C(CN1C[C@H]2C[C@H](Oc3ccncc3)C[C@H]2C1)c1ccc(O)cc1`: the IC50 in test [1] (setting [3]) was 2.78 µM; in test [2], 1 to 10 µM.

As for `Oc1ccc(C(O)CN2C[C@H]3C[C@H](Oc4ccncc4)C[C@H]3C2)cc1` (stereo partly drawn), the IC50 is 4.47 µM in test [1] (setting [3]) and 1 to 10 µM in test [2].

With `Cc1ncccc1O[C@H]1C[C@@H]2CN(CC(=O)c3ccc(O)cc3)C[C@@H]2C1`, the IC50 was 0.134 µM in test [1] (setting [3]) and 0.1 to 1 µM in test [2].

Consider `Cc1ncccc1O[C@H]1C[C@@H]2CN(CC(O)c3ccc(O)cc3)C[C@@H]2C1` (stereo partly drawn), for which the IC50 in test [1] (setting [3]) is 0.188 µM; in test [2], 0.1 to 1 µM.

Turning to `COc1ccc(O[C@H]2C[C@@H]3CN(CC(=O)c4ccc(O)c(F)n4)C[C@@H]3C2)cc1`, the IC50 was 10 µM in test [1] (setting [3]) and more than 10 µM in test [2].

Take `COc1ccc(O[C@H]2C[C@@H]3CN(CC(O)c4ccc(O)c(F)n4)C[C@@H]3C2)cc1` (stereo partly drawn): the IC50 in test [1] (setting [3]) is 3.29 µM; in test [2], 1 to 10 µM.

Consider `O=C(CN1C[C@H]2C[C@@H](Oc3cccnc3)C[C@H]2C1)c1ccc(O)cc1`, for which the IC50 was 5.22 µM in test [1] (setting [3]) and 1 to 10 µM in test [2].

As to `Oc1ccc(C(O)CN2C[C@H]3C[C@@H](Oc4cccnc4)C[C@H]3C2)cc1` (stereo partly drawn), the IC50 in test [1] (setting [3]) was 8 µM; in test [2], 1 to 10 µM.

For the compound `N#Cc1cccc(O[C@H]2C[C@@H]3CN(CC(=O)c4ccc(O)cn4)C[C@@H]3C2)c1`, the IC50 in test [1] (setting [3]) was 10 µM; in test [2], more than 10 µM.

As to `O=C(CN1C[C@H]2C[C@H](Oc3cccc4cnccc34)C[C@H]2C1)c1ccc(O)cc1`, the IC50 in test [1] (setting [3]) was 0.409 µM; in test [2], 0.1 to 1 µM.

As for `Oc1ccc(C(O)CN2C[C@H]3C[C@H](Oc4cccc5cnccc45)C[C@H]3C2)cc1` (stereo partly drawn), the results for the IC50 in test [1] (setting [3]) and in test [2] were 0.191 µM and 0.1 to 1 µM, respectively.

Regarding `COc1ccc(O[C@@H]2C[C@@H]3CN(CC(O)c4ccc(O)cn4)C[C@@H]3C2)cc1` (stereo partly drawn), the values for the IC50 in test [1] (setting [3]) and in test [2] were 0.44 µM and 0.1 to 1 µM, respectively.

Consider `Oc1ccc(C(O)CN2C[C@H]3C[C@@H](Oc4ccc(F)c(F)c4)C[C@H]3C2)nc1` (stereo partly drawn), for which the IC50 in test [1] (setting [3]) is 0.0376 µM; in test [2], less than 0.1 µM.

In the case of `N#Cc1ccc(O[C@@H]2C[C@@H]3CN(CC(=O)c4ccc(O)cn4)C[C@@H]3C2)cc1`, the IC50 in test [1] (setting [3]) is 10 µM; in test [2], more than 10 µM.

As to `O=C(CN1C[C@H]2C[C@@H](Oc3ccc(F)c(F)c3)C[C@H]2C1)c1ccc(O)cc1`, the IC50 in test [1] (setting [3]) is 0.0686 µM; in test [2], less than 0.1 µM.

As for `O=C(CN1C[C@H]2C[C@H](Oc3ccccc3)C[C@H]2C1)c1ccc(O)cc1`, the IC50 in test [1] (setting [3]) is 0.0107 µM; in test [2], less than 0.1 µM.

On to `Oc1ccc(C(O)CN2C[C@H]3C[C@H](Oc4ccccc4)C[C@H]3C2)cc1` (stereo partly drawn), for which the IC50 in test [1] (setting [3]) was 0.00596 µM; in test [2], less than 0.1 µM.

Consider `O=C(CN1C[C@H]2C[C@H](Oc3cccnc3F)C[C@H]2C1)c1ccc(O)cn1`, for which the IC50 was 10 µM in test [1] (setting [3]) and more than 10 µM in test [2].

Consider `COc1ncccc1O[C@H]1C[C@@H]2CN(CC(=O)c3ccc(O)cc3)C[C@@H]2C1`, for which the IC50 was 10 µM in test [1] (setting [3]) and more than 10 µM in test [2].

Turning to `COC(CN1C[C@H]2C[C@H](Oc3ccc(F)cc3)C[C@H]2C1)c1ccc(OCc2ccccc2)cc1` (stereo partly drawn), the IC50 in test [1] (setting [3]) was 10 µM; in test [2], more than 10 µM.

Regarding `Oc1ccc(C(O)CN2C[C@H]3C[C@H](Oc4cccnc4F)C[C@H]3C2)nc1` (stereo partly drawn), the IC50 in test [1] (setting [3]) was 0.0209 µM; in test [2], less than 0.1 µM.

Turning to `Oc1ccc(C(O)CN2C[C@H]3C[C@@H](Oc4ccc(F)c(F)c4)C[C@H]3C2)cc1` (stereo partly drawn), the IC50 was 0.0807 µM in test [1] (setting [3]) and less than 0.1 µM in test [2].

As for `N#Cc1ccc(O[C@@H]2C[C@@H]3CN(CC(O)c4ccc(O)cn4)C[C@@H]3C2)cc1` (stereo partly drawn), the IC50 is 10 µM in test [1] (setting [3]) and more than 10 µM in test [2].

For `O=C(CN1C[C@H]2C[C@H](Oc3ccccc3)C[C@H]2C1)c1ccc(O)cn1`, the IC50 in test [1] (setting [3]) is 6.24 µM; in test [2], 1 to 10 µM.

For `O=C(CN1C[C@H]2C[C@H](Oc3cccnc3F)C[C@H]2C1)c1ccc(O)c(F)c1`, the IC50 in test [1] (setting [3]) is 10 µM; in test [2] it was more than 10 µM.

Regarding `Oc1ccc(C(O)CN2C[C@H]3C[C@H](Oc4ccccc4F)C[C@H]3C2)cc1` (stereo partly drawn), the IC50 was 0.00444 µM in test [1] (setting [3]) and less than 0.1 µM in test [2].

With `O=C(CN1C[C@H]2C[C@H](Oc3ccccc3F)C[C@H]2C1)c1ccc(O)cc1`, the values for the IC50 in test [1] (setting [3]) and in test [2] were 0.0168 µM and less than 0.1 µM, respectively.

`Oc1ccc(C(O)CN2C[C@H]3C[C@H](Oc4ccccc4)C[C@H]3C2)nc1` (stereo partly drawn): the IC50 in test [1] (setting [3]) is 0.00572 µM; in test [2], less than 0.1 µM.

For `Oc1ccc(C(O)CN2C[C@H]3C[C@H](Oc4cccnc4F)C[C@H]3C2)cc1F` (stereo partly drawn), the IC50 is 0.0217 µM in test [1] (setting [3]) and less than 0.1 µM in test [2].

For `O=C(CN1C[C@H]2C[C@H](Oc3ccc(F)nc3)C[C@H]2C1)c1ccc(O)cc1`, the IC50 is 0.0552 µM in test [1] (setting [3]) and less than 0.1 µM in test [2].

Consider `O=C(CN1C[C@H]2C[C@H](Oc3ccc(F)nc3)C[C@H]2C1)c1ccc(O)cn1`, for which the IC50 in test [1] (setting [3]) is 10 µM; in test [2], more than 10 µM.

As for `OC(CN1C[C@H]2C[C@H](Oc3ccc(F)cc3)C[C@H]2C1)c1cn[nH]c1` (stereo partly drawn) [drawing 268], the IC50 in test [1] (setting [3]) was 1.98 µM; in test [1] (NR2B NAM assay, class of inhibitory concentration, read-out: Activity Category), 1 to 10 µM.
